Values after ≈ are worked out from the molar mass of the structure shown. Blank lines part the entries; values can stand above or below the compound they belong to.
What was measured:
[1] = target: Methionine--tRNA ligase (Escherichia coli K-12) (UniProt P00959); assay: Ability to inhibit Escherichia coli methionyl-tRNA synthetase was determined at a concentration of 270 uM
Serratia marcescens = assay: Antimicrobial activity against Serratia marcescens 1826E was determined; type: functional
Bacillus subtilis = assay: Antimicrobial activity against Bacillus subtilis ATCC 6633 was determined; type: functional
Staphylococcus aureus = assay: Antimicrobial activity against Staphylococcus aureus 1538p was determined; type: functional
Pseudomonas aeruginosa = assay: Antimicrobial activity against Pseudomonas aeruginosa 1912E was determined; type: functional
Citrobacter freundii = assay: Antimicrobial activity against Citrobacter freundii 8090 was determined; type: functional
Klebsiella pneumoniae = assay: Antimicrobial activity against Klebsiella pneumoniae 2011E was determined; type: functional
Salmonella typhimurium = assay: Antimicrobial activity against Salmonella Typhimurium 14028 was determined; type: functional, Salmonella enterica subsp. enterica serovar Typhimurium; conditions: Salmonella enterica
Escherichia coli = assay: Antimicrobial activity against Escherichia coli JM109 was determined; type: functional
Enterococcus faecalis = assay: Antimicrobial activity against Enterococcus faecalis 29212 was determined; type: functional
Proteus vulgaris = assay: Antimicrobial activity against Proteus vulgaris 6059 was determined; type: functional

Chain of Methionine--tRNA ligase (Escherichia coli K-12) (P00959 2-677 limits assumed): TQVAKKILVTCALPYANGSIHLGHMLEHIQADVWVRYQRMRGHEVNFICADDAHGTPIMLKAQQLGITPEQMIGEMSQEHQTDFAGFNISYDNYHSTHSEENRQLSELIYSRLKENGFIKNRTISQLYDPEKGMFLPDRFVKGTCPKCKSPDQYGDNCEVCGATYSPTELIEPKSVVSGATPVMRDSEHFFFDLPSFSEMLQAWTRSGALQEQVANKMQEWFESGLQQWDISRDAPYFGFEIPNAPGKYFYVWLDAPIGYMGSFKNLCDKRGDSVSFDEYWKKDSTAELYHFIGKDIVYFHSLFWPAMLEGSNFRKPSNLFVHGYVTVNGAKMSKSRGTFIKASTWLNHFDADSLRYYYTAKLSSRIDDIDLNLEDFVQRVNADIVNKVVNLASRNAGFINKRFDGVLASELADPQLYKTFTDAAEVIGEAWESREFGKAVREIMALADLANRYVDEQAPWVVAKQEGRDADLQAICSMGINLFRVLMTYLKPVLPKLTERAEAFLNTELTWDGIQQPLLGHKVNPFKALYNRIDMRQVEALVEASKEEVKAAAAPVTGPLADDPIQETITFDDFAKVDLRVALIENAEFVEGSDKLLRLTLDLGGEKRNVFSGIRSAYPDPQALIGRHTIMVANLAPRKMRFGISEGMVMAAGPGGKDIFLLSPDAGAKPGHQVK

SMILES: CSCC[C@H](N)C(=O)NOC(C)(C)C
inhibition [1]: 56.2%

SMILES: CSCCC(=O)Cl
inhibition [1]: 14%

SMILES: CSCC[C@H](NC(=O)OC(C)(C)C)C(=O)NOC(=O)OC(C)(C)C
inhibition [1]: 0%

SMILES: CSCCO
inhibition [1]: 3.2%

SMILES: CSCC[C@H](N)C(=O)Nc1ccc([N+](=O)[O-])cc1
inhibition [1]: 33.5%

SMILES: CSCC[C@H](N)C(=O)NO.O=C(O)C(F)(F)F
MIC (Serratia marcescens): > 128 µg/mL
MIC (Bacillus subtilis): > 128 µg/mL
inhibition [1]: 81.5%
MIC (Staphylococcus aureus): > 128 µg/mL
MIC (Pseudomonas aeruginosa): > 128 µg/mL
MIC (Citrobacter freundii): 8 µg/mL
MIC (Klebsiella pneumoniae): > 128 µg/mL
MIC (Salmonella typhimurium): > 128 µg/mL
MIC (Escherichia coli): 1 µg/mL
MIC (Enterococcus faecalis): > 128 µg/mL
MIC (Proteus vulgaris): 2 µg/mL

SMILES: CSCC[C@H](NC(=O)OC(C)(C)C)C(=O)NO
inhibition [1]: 11.4%

SMILES: CSCC[C@H](NC(=O)OC(C)(C)C)C(=O)O
inhibition [1]: 11.3%

SMILES: CS(=O)(=O)CC[C@H](N)C(=O)NO
inhibition [1]: 0%

SMILES: CSCCN1C(=O)c2ccccc2S1(=O)=O
inhibition [1]: 16.3%

SMILES: C[S+]([O-])CC[C@H](N)C(=O)NO (stereo partly drawn)
inhibition [1]: 8.5%

SMILES: CSCCC(N)C(=O)NO.O=C(O)C(F)(F)F (stereo not drawn)
MIC (Serratia marcescens): > 128 µg/mL
MIC (Bacillus subtilis): > 128 µg/mL
MIC (Staphylococcus aureus): > 128 µg/mL
MIC (Pseudomonas aeruginosa): > 128 µg/mL
MIC (Citrobacter freundii): > 128 µg/mL
MIC (Klebsiella pneumoniae): > 128 µg/mL
MIC (Salmonella typhimurium): > 128 µg/mL
MIC (Escherichia coli): > 128 µg/mL
MIC (Enterococcus faecalis): > 128 µg/mL
MIC (Proteus vulgaris): > 128 µg/mL

SMILES: CSCCC(N)C(=O)Nc1ccc2ccccc2c1 (stereo not drawn)
inhibition [1]: 22.3%

SMILES: CSCC[C@H](N)C(=O)NCO
inhibition [1]: 23.1%

Further lines, results first:

inhibition [1]: 8.3%
SMILES: CSCCc1n[nH]cc1C(=O)O

inhibition [1]: 0.4%
SMILES: COC(=O)CC(=O)CCSC

inhibition [1]: 4.7%
SMILES: CSCCC=O

inhibition [1]: 0%
SMILES: CSCCCCO

MIC (Serratia marcescens): > 128 µg/mL
MIC (Bacillus subtilis): > 128 µg/mL
MIC (Staphylococcus aureus): > 128 µg/mL
MIC (Pseudomonas aeruginosa): > 128 µg/mL
MIC (Citrobacter freundii): 8 µg/mL (≈ 48.7 µM)
MIC (Klebsiella pneumoniae): > 128 µg/mL
MIC (Salmonella typhimurium): > 128 µg/mL
MIC (Escherichia coli): 2 µg/mL (≈ 12.2 µM)
MIC (Enterococcus faecalis): > 128 µg/mL
MIC (Proteus vulgaris): 4 µg/mL (≈ 24.4 µM)
SMILES: CSCCC(N)C(=O)NO (stereo not drawn)

inhibition [1]: 1.8%
SMILES: CSCCc1cc(O)[nH]n1

inhibition [1]: 16.2%
SMILES: CSCCc1nn[nH]n1

inhibition [1]: 3.8%
SMILES: COC(=O)CCSC

inhibition [1]: 0%
SMILES: CCOC(=O)c1c[nH]nc1CCSC

inhibition [1]: 0%
SMILES: CSCC[C@H](N)C(=O)Nc1cccc([N+](=O)[O-])c1

inhibition [1]: 5.9%
SMILES: CSCCC(=O)O

inhibition [1]: 20.4%
SMILES: COC(=O)[C@@H](N)CCSC

inhibition [1]: 7.8%
SMILES: CSCCC#N

inhibition [1]: 0%
SMILES: CSCC[C@H](N)C(=O)C(C)C

inhibition [1]: 0%
SMILES: CSCCCO

inhibition [1]: 17.8%
SMILES: CSCC[C@H](N)C(N)=O
